Measured values from patent US6764855B2, “Fluorescent hplc assay for 20-hete and other p-450 metabolites of arachidonic acid” (MCW Research Foundation, priority 2000, dated 2004).

Legend:
[1] = tested on: urinary excretion of 20-HETE; test: Effect of an irreversible P-450 inhibitor on the urinary excretion of 20-HETE; type: in vivo, rats; settings: ABT 50 mg/kg ip, second 50 mg/kg injection 12 h later, 24-h urine vs control
Description: To label the fatty acids, we resuspended samples, which were extracted and dried under argon, in 20 μl of acetonitrile containing 36.4 mM 2-(2,3-naphthalimino)ethyl trifluoromethanesulfonate. N,N-diisopropylethylamine (10 μl) was added to catalyze the reaction. The sample was reacted for 30 min at room temperature. The reactions were dried down under argon, resuspended in 1 ml of 20% acetonitrile:water, and applied to a Sep-Pak Vac column. The column was washed with 6 ml of 50% acetonitrile:water solution to remove unreacted dye and eluted with 500 μl of ethyl acetate. The eluent was dried under argon, and the samples were resuspended in 100 μl of the IPLC mobile phase (methanol:water:acetic acid, 82:18:0.1 vol/vol/vol). […] Fluorescence intensity was continuously monitored using a fluorescence detector (model L-7480; Hitachi, Naperville, Ill.) at a medium gain sensitivity. The amount of 20-HETE in the sample was determined by comparing the area of the 20-HETE peak to that of an internal standard. […]
SHR and normotensive Sprague-Dawley rats were placed in special metabolic cages (model 650-00350; Nalgene, Rochester, N.Y.) that efficiently separated urine from food and feces and were allowed to equilibrate for 5 days. […] The radioactive products were monitored using a radioactive flow detector (model 120; Radiomatic Instrument, Tampa, Fla.).

P-4504A enzyme = P-4504A enzyme activity (20-HETE production) in renal cortical microsomes from treated rats; type: in vivo
Description: SHR and normotensive Sprague-Dawley rats were placed in special metabolic cages (model 650-00350; Nalgene, Rochester, N.Y.) that efficiently separated urine from food and feces and were allowed to equilibrate for 5 days. After 5 days, the food was withdrawn from the rat to prevent contamination of the urine sample and a 24-h control urine sample was collected on dry ice. After the control sample was collected, food was returned to the rats, and after a 2-day recovery period, the rats received an intraperitoneal injection of ABT (50 mg/kg) followed by a second (50 mg/kg) injection 12 h later. Two hours after administration of the first dose of ABT, food was withdrawn and a 24-h experimental urine sample was collected on dry ice. After the urine was collected, the rats were killed with pentobarbital sodium (100 mg/kg ip), and the kidneys were collected. The renal cortex was separated from the renal medulla, frozen in liquid nitrogen, and stored overnight for measurement of the renal metabolism of AA. Briefly, the renal cortex was homogenized in a 10 mM potassium phosphate buffer (pH 7.7) containing 250 mM sucrose, 1 mM EDTA, and 10 mM magnesium chloride, and microsomes were prepared by differential centrifugation. […] The radioactive products were monitored using a radioactive flow detector (model 120; Radiomatic Instrument, Tampa, Fla.).

- 20-HETE production by renal cortical microsomes (P-4504A enzyme; microsomes from kidneys of ABT-treated SHR (n=4), vehicle 459±192): 12±4 pmol●min^−1●mg^−1
- 20-HETE production by renal cortical microsomes (P-4504A enzyme; microsomes from kidneys of ABT-treated Sprague-Dawley rats (n=5), vehicle 324±25): 25±3 pmol●min^−1●mg^−1
SMILES: Nn1nnc2ccccc21 [ABT, 1-aminobenzotriazole]
- fall in urinary excretion of 20-HETE after administration of ABT ([1]; SHR (n=4)): 65±10%
- fall in urinary excretion of 20-HETE after administration of ABT ([1]; Sprague-Dawley rats (n=5)): 74±9%
